Assay results reported in ChEMBL document CHEMBL2413004, “Synthesis and in vitro cytostatic activity of 1,2- and 1,3-diacylglycerophosphates of clofarabine” (Bioorg Med Chem, 2013).

Tests used:
Assay type in all cases: functional, cell-based
[1] = tested on: HeLa; assay: Cytostatic activity against human HeLa cells after 48 hrs by MTT assay
[2] = tested on: MCF7; assay: Cytostatic activity against human MCF7 cells after 48 hrs by MTT assay; settings: MCF7, 48 h
[3] = tested on: HL-60; assay: Cytostatic activity against human HL60 cells after 48 hrs by MTT assay; settings: HL-60, 48 h
[4] = tested on: A549; assay: Cytostatic activity against human A549 cells after 48 hrs by MTT assay; settings: A549, 48 h

| Compound | IC50 [1] [µM] | IC50 [2] [µM] | IC50 [3] [µM] | IC50 [4] [µM] |
| --- | --- | --- | --- | --- |
| CCCCCCCCCCCCCCCC(=O)OC[C@@H](COP(=O)(O)OC[C@H]1O[C@@H](n2cnc3c(N)nc(Cl)nc32)[C@@H](F)[C@@H]1O)OC(=O)CCCCCCCCCCCCCCC | > 100 | > 100 | 10 | > 100 |
| CCCCCCCCCCCCCCCC(=O)OCC(COC(=O)CCCCCCCCCCCCCCC)OP(=O)(O)OC[C@H]1O[C@@H](n2cnc3c(N)nc(Cl)nc32)[C@@H](F)[C@@H]1O | 100 | 30 | 55 | 90 |
| CCCCCCCCCCCCCC(=O)OC[C@@H](COP(=O)(O)OC[C@H]1O[C@@H](n2cnc3c(N)nc(Cl)nc32)[C@@H](F)[C@@H]1O)OC(=O)CCCCCCCCCCCCC | 50 | 40 | 0.8 | > 100 |
| Nc1nc(Cl)nc2c1ncn2[C@@H]1O[C@H](CO)[C@@H](O)[C@@H]1F [CLOFARABINE] | 50 | 50 | 0.1 | 8 |
| CCCCCCCCCCCCCC(=O)OCC(COC(=O)CCCCCCCCCCCCC)OP(=O)(O)OC[C@H]1O[C@@H](n2cnc3c(N)nc(Cl)nc32)[C@@H](F)[C@@H]1O | > 100 | 40 | > 100 | > 100 |
